The values below come from patent US6461844B1, “Liver GalNAc-1-phosphate kinase” (The Board of Trustees of the University of Arkansas, priority 1995, dated 2002).

The Km is the substrate concentration at which the rate is half of its maximum.

The target in series [1] is T1, GalNAc kinase (Sus scrofa, UniProt A0A287BB25).
T1 construct: This enzyme was purified about 1400-fold from the cytosolic fraction of pig kidney; from tissue; host or cells: pig kidney cytosol
Nature of the series: Effect of substrate concentration on GalNAc kinase activity (Km). The format is biochemical, pig. The conditions noted are these: 300 μM GalNAc; Lineweaver-Burk; read-out: Km for ATP. The procedure: (§1) In FIG. 3A, various amounts of GalNAc were added to otherwise standard incubation mixtures containing 300 μM ATP, and the amount of GalNAc phosphorylated by the purified enzyme was determined. In FIG. 3B, the data was replotted by the method of Lineweaver and Burk. In FIG. 3C, various amounts of the other substrate, ATP, were added to otherwise standard incubation mixtures containing saturating (300 μM) levels of GalNAc and the amount of phosphorylation of GalNAc by the purified enzyme was determined.
(§2) GalNAc kinase activity was assayed in incubation mixtures of 200 μl containing the following components: [^3H]GalNAc (10,000 cpm), 1 μmole of ATP, 2 μmoles of MgCl2, 20 μmoles of Tris-HCl buffer, pH 7.5, and various amounts of the enzyme preparations to be assayed. Following an incubation for the appropriate time, the reaction was stopped by heating at 100° C. for 5 min., and the incubation mixture was applied to a column of DE-52. The column was washed with at least 5 column volumes of 10 mM (NH4)HCO3 buffer to remove unbound material, and then GalNAc phosphate was eluted with 500 mM ammonium bicarbonate. Aliquots of the wash and eluent were removed and assayed for their radioactive content by scintillation counting.

The target of series [2] is T1, GalNAc kinase. Nature of the series: Phosphate donor specificity of GalNAc kinase. Further details: Radioactivity in Sugar-P: unit not given beside the values. The format is biochemical, pig.
The target in series [3] is T1, GalNAc kinase. Nature of the series: Azido-ATP[32P] photoaffinity labeling of the purified kinase. The format is binding, pig. The conditions noted are these: unlabeled nucleotide added. The procedure:
The proteins were transferred to nitrocellulose membranes and exposed to film to detect the radioactive bands.
The purified enzyme fraction was incubated with azido-ATP[^32P], exposed to UV light and run on SDS gels. […] The product of the reaction was characterized as GalNAc-α-1-P by susceptibility of the phosphate group to mild acid hydrolysis, by its mobility on TLC and Dionex chromatography, and by high resolution NMR.
The GalNAc kinase was purified from the cytosolic fraction of pig kidney using the purification scheme described in the section above and outlined in Table I. Using this procedure, the kinase was purified about 1400-fold from crude extracts with a recovery of about 24%. […] In addition, the amount of label in that band increased with increasing amounts of the probe, and the labeling was inhibited by adding unlabeled ATP, but not by other nucleotides. […] Moreover, gel filtration of the native enzyme on Sephadex G-100 gave an activity peak in the region where proteins of about 48-51 kDa elute. Thus the native protein is probably a monomer of about 50 kDa molecular weight. Sufficient amounts of this protein band can be prepared to determine the amino acid sequence and to prepare antibodies.

Series [4] can be described thus: Acid lability of the phosphate group of sugar phosphates. The format is physicochemical. Particulars: 0.05 N HCl, 100° C., up to 50 minutes. How it is done:
A large amount of the radioactive product formed by the GalNAc kinase was isolated and purified on a DE-52 column, and this product was suspended in 0.05 N HCl and placed in a hot water bath at about 95° C. At various times, aliquots of the reaction mixture were removed, cooled, neutralized and passed through a column of DE-52 to determine whether the ^3H-GalNAc had lost its charge. Standards of Glc-6-P, Glc-1-P, GalNAc-1-P and GlcNAc-6-P were also subjected to the same hydrolysis conditions and were tested for their susceptibility to loss of phosphate.
The radioactive material was examined for purity and characterization by TLC chromatography on cellulose plates in 70% ethanol: 1 M ammonium acetate, pH 7.5 (7:3), or in 70% ethanol: 1 M ammonium acetate, pH 3.5 (7:3). The product was subjected to HPLC on the Dionex apparatus, using a column to separate various sugar phosphates from each other. Sugar-1-phosphates were distinguished from sugar-6-phosphates by their susceptibility to acid hydrolysis in 0.05 N HCl at 100° C. Sugar-1-phosphates are rapidly hydrolyzed whereas sugar-6-phosphates are stable. […]
The radioactive product from the ion exchange columns was suspended in 0.05 N HCl and heated at 100° C. for various periods of time. […] The amount of radioactivity that emerged in the wash was taken as a measure of removal of the phosphate group. […]

In series [5] the test system is UDP-GlcNAc pyrophosphorylases. The conditions noted are these: UDP-GlcNAc = 100%; cited from earlier work.
Series [6] relates to UDP-GlcNAc pyrophosphorylase. The conditions noted are these: partially purified enzyme; cited from earlier work.
Substrate in series [7]: CC(=O)N[C@H]1C(O)O[C@H](CO)[C@H](O)[C@@H]1O
Nature of the series: Effect of substrate concentration on GalNAc kinase activity (Km). The format is biochemical, pig. Particulars: other: 300 μM ATP; Lineweaver-Burk; pH 7.5. The procedure: as §1, §2

For `Nc1ncnc2c1ncn2[C@@H]1O[C@H](COP(=O)(O)OP(=O)(O)OP(=O)(O)O)[C@@H](O)[C@H]1O` [ATP], the Km at GalNAc kinase [1] came out at 100 µM. Moreover, the “activity as phosphate donor” value at GalNAc kinase [2] is on record as “by far the best phosphate donor”. Also, on GalNAc kinase [2] (nucleotide added at 5 mM), the “Radioactivity in Sugar-P” value was 10,195 and the “Specific Activity” value was determined as 160.0 nmol/mg. Also, at GalNAc kinase [3], the “effect on labeling of the 50 kDa band by ATP[32P] photoaffinity probe” value was “inhibited”.
As to `CC(=O)N[C@@H]1C(O)[C@H](O)[C@@H](COP(=O)(O)O)O[C@H]1O` (stereo partly shown) [GlcNAc-6-phosphate], the “stability to acid hydrolysis” value in series [4] is listed as “quite stable”.
With `CC(=O)N[C@H]1[C@@H](OP(=O)(O)OP(=O)(O)OC[C@H]2O[C@@H](n3ccc(=O)[nH]c3=O)[C@H](O)[C@@H]2O)O[C@H](CO)[C@H](O)[C@@H]1O` [UDP-GalNAc], in series [5], the activity towards substrate is reported as 3%. In addition, the “rate of pyrophosphorolysis relative to UDP-GlcNAc” value in series [6] was “about 2.8%”.
Turning to `CC(=O)N[C@H]1[C@@H](OP(=O)(O)OP(=O)(O)OC[C@H]2O[C@@H](n3ccc(=O)[nH]c3=O)[C@H](O)[C@@H]2O)O[C@H](CO)[C@@H](O)[C@@H]1O` [UDP-GlcNAc], the activity towards substrate in series [5] is reported as 100%.

B1: GalNAc kinase (Sus scrofa) (protein)
chain: MATEGPPVHQVQVAEHPRLLKLKEIFNSKFGSIPKFYVRAPGRVNIIGEHIDYCGYSVLPMAVEQDMLIAVEPVKTHTLQLANTNPLYPDFNTSADNIQIDKTKPLWHNYFLCGFKGIQEHFGLSNLIGMNCLVDGNIPPSSGLSSSSALVCCAGLVTLTVLGMNLSKVELAEICAKSERYIGTEGGGMDQSISFLAEEGTAKLIEFSPLRATDVKLPSGAVFVIANSCVEMNKAATSHFNIRVMECRLAAKLLAKHRSLQWDKVLRLEEVQAKLGVSLEEMLLITEDTLHPEPYSPEEVCQCLGISLQELKTQILSPNTQDVLTFKLYQRAKHVYSEAARVLQFKKICEEAPDDMVQLLGELMNQSHVSCRDMYECSCPELDQLVDICRKFGAQGSRLTGAGWGGCTVSIVLADKLPSFLANVHEAYYQKSGRSLAPEKQSLFATKPGGGALVFLEA
notes: This enzyme was purified about 1400-fold from the cytosolic fraction of pig kidney; from tissue; host or cells: pig kidney cytosol
For B1, in series [7], the Km came to 50 µM.
